In patent US20250376472A1, “3-(PHENYLSULFONYL)-[1,2,3]TRIAZOLO[1,5A]QUINAZOLIN-5(4H)-ONE DERIVATIVES” (priority 2022, published 2025):

Target: T1, AgrA (Staphylococcus aureus, UniProt P0A0I7)
T1 construct: endogenous in cells; host or cells: S. aureus USA300 strain UAMS-1625 carrying a P3-lacZ reporter plasmid
Assay: cell-based
Set-up: species or system S. aureus
Conditions: for Ratio IC50 (in presence of HSA)/IC50 (in absence of HSA): 40 mg/mL HSA versus no HSA
Description: The inventive compounds are 3-(phenylsulfonyl)-[1,2,3]triazolo[1,5a]quinazolin-5(4h)-one derivatives comprising an N-bound piperazine or homopiperazine at the 8-position of the [1,2,3]triazolo[1,5a]quinazolin-5(4h)-one core, further substituted (on the second nitrogen atom) by an (optionally substituted) acetyl or propionyl amide group. […] Specifically, the reporter gene lacZ (which encodes the protein product β-galactosidase) was transfected into S. aureus with a plasmid under control of the P3 promoter. The compounds were serially diluted in lysogeny broth (LB), and incubated with S. aureus. Following incubation, the S. aureus cells were lysed and treated with 4-methylumbelliferyl-galactopyranoside (MUG). The β-galactosidase produced by expression of lacZ cleaved the MUG into galactopyranose and 4-methylumbelliferone, which was measured by fluorescence.
The resulting reporter strain was used to measure AgrA inhibitory activity as follows. From an overnight culture plate, cells were resuspended in 0.9% (w/v) saline solution and bacterial inoculum was prepared in LB medium with 5×10^5 CFU/ml. Compounds were two-fold serially diluted in LB and 50 μL of this 10× concentrated samples were added into the 96-deep well plate. 500 μL of bacterial suspension was finally added to the compounds or DMSO control. Plates were covered and incubated with shaking at 37° C. After 18 hours incubation, 100 μL was transferred to a new clear 96-well plate and the OD600 was measured using a TECAN Infinite F200 microplate reader to control for growth inhibition. Another 100 μL was transferred to a new black 96-well plate containing 30 μL of lysis buffer (20 mM Tris/HCl, 3 mM MgCl2, 0.5% Tween 20 (v/v), 0.5% NP-40 (v/v)) and the plate was incubated with shaking at 37° C. for 60 min. 20 μL of the substrate MUG (4-Methylumbelliferyl O-D-galactopyranoside) at 0.25 mg/ml was added and the fluorescence (excitation: 360 nm, emission: 450 mu) was measured with a TECAN Infinite F200 microplate reader after 3 hours incubation at 37° C. with shaking. The IC50 was determined using GraphPad PRISM after normalization to DMSO control.

[1] = LB medium supplemented with human serum albumin 40 mg/mL
[2] = LB medium, no human serum albumin, 18 hours incubation
[3] = IC50 at 40 mg/mL HSA, LB medium supplemented with human serum albumin 40 mg/mL
[4] = IC50 without HSA, LB medium, no human serum albumin, 18 hours incubation

T1 sequence (P0A0I7 whole entry): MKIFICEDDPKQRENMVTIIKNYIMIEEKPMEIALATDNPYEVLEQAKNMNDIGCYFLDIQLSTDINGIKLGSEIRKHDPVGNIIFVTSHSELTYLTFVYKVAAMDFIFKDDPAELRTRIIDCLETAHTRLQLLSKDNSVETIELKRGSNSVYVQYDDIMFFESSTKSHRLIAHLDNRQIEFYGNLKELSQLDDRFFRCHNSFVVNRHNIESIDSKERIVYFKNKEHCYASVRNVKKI

Compound | IC50 [3] [µM] | IC50 [4] [µM] | other results
Cc1ccc(S(=O)(=O)c2nnn3c2[nH]c(=O)c2ccc(N4CCN(CC(=O)N5CC(C)CC(C)C5)CC4)cc23)c(C)c1 (mixture of isomers) [Compound 63] |  |  | Ratio IC50 (in presence of HSA)/IC50 (in absence of HSA): ++ (++: 25 < ratio ≤ 125); IC50 at 40 mg/mL HSA [1]: ++ (++: 10 μg/mL < IC50 ≤ 50 μg/mL); IC50 without HSA [2]: +++ (+++: IC50 ≤ 1 μg/mL)
Cc1ccc(S(=O)(=O)c2nnn3c2[nH]c(=O)c2ccc(N4CCN(CC(=O)N5CCCC5)CC4)cc23)c(C)c1 [Compound 1, 3-(2,4-dimethylphenyl)sulfonyl-8-[4-(2-oxo-2-pyrrolidin-1-yl-ethyl)piperazin-1-yl]-4H-triazolo[1,5-a]quinazolin-5-one] | 18.2 to 91 | < 1.82 | Ratio IC50 (in presence of HSA)/IC50 (in absence of HSA): ++ (++: 25 < ratio ≤ 125)
Cc1ccc(S(=O)(=O)c2nnn3c2[nH]c(=O)c2ccc(N4CCN(CC(=O)N5CCOCC5)CC4)cc23)c(C)c1 [Compound 2, 3-(2,4-dimethylphenyl)sulfonyl-8-[4-(2-morpholino-2-oxo-ethyl)piperazin-1-yl]-4H-triazolo[1,5-a]quinazolin-5-one] | < 17.7 | < 1.77 | Ratio IC50 (in presence of HSA)/IC50 (in absence of HSA): +++ (+++: ratio ≤ 25)
CNC(=O)CN1CCN(c2ccc3c(=O)[nH]c4c(S(=O)(=O)c5ccc(C)cc5C)nnn4c3c2)CC1 [Compound 3] | < 19.6 | < 1.96 | 
CCNC(=O)CN1CCN(c2ccc3c(=O)[nH]c4c(S(=O)(=O)c5ccc(C)cc5C)nnn4c3c2)CC1 [Compound 4] | < 19.1 | < 1.91 | 
CCCNC(=O)CN1CCN(c2ccc3c(=O)[nH]c4c(S(=O)(=O)c5ccc(C)cc5C)nnn4c3c2)CC1 [Compound 5] | 18.6 to 93 | < 1.86 | 
Cc1ccc(S(=O)(=O)c2nnn3c2[nH]c(=O)c2ccc(N4CCN(CC(=O)NC(C)C)CC4)cc23)c(C)c1 [Compound 6] | < 18.6 | < 1.86 | 
Cc1ccc(S(=O)(=O)c2nnn3c2[nH]c(=O)c2ccc(N4CCN(CC(=O)NCC(C)C)CC4)cc23)c(C)c1 [Compound 7] | 18.1 to 90.6 | < 1.81 | 
Cc1ccc(S(=O)(=O)c2nnn3c2[nH]c(=O)c2ccc(N4CCN(CC(=O)N(C)C)CC4)cc23)c(C)c1 [Compound 8] | 19.1 to 95.5 | < 1.91 | 
CCN(C)C(=O)CN1CCN(c2ccc3c(=O)[nH]c4c(S(=O)(=O)c5ccc(C)cc5C)nnn4c3c2)CC1 [Compound 9] | 18.6 to 93 | < 1.86 | 
CCCCCNC(=O)CN1CCN(c2ccc3c(=O)[nH]c4c(S(=O)(=O)c5ccc(C)cc5C)nnn4c3c2)CC1 [Compound 10] | 17.7 to 88.4 | < 1.77 | 
Cc1ccc(S(=O)(=O)c2nnn3c2[nH]c(=O)c2ccc(N4CCN(CC(=O)NCCC(C)C)CC4)cc23)c(C)c1 [Compound 11] | 17.7 to 88.4 | < 1.77 | 
CCCCCCNC(=O)CN1CCN(c2ccc3c(=O)[nH]c4c(S(=O)(=O)c5ccc(C)cc5C)nnn4c3c2)CC1 [Compound 12] | 17.2 to 86.2 | < 1.72 | 
Cc1ccc(S(=O)(=O)c2nnn3c2[nH]c(=O)c2ccc(N4CCN(CC(=O)NCCC(C)(C)C)CC4)cc23)c(C)c1 [Compound 13] | 17.2 to 86.2 | < 1.72 | 
Cc1ccc(S(=O)(=O)c2nnn3c2[nH]c(=O)c2ccc(N4CCN(CC(=O)NCCC(F)(F)F)CC4)cc23)c(C)c1 [Compound 14] | 16.9 to 84.5 | < 1.69 | 
Cc1ccc(S(=O)(=O)c2nnn3c2[nH]c(=O)c2ccc(N4CCN(CC(=O)NCCCC(F)(F)F)CC4)cc23)c(C)c1 [Compound 15] | 16.5 to 82.6 | < 1.65 | 
COCCNC(=O)CN1CCN(c2ccc3c(=O)[nH]c4c(S(=O)(=O)c5ccc(C)cc5C)nnn4c3c2)CC1 [Compound 16] | < 18.1 | < 1.81 | 
COCCCNC(=O)CN1CCN(c2ccc3c(=O)[nH]c4c(S(=O)(=O)c5ccc(C)cc5C)nnn4c3c2)CC1 [Compound 17] | 17.6 to 88.1 | < 1.76 | 
CSCCNC(=O)CN1CCN(c2ccc3c(=O)[nH]c4c(S(=O)(=O)c5ccc(C)cc5C)nnn4c3c2)CC1 [Compound 18] | 17.6 to 87.8 | < 1.76 | 
Cc1ccc(S(=O)(=O)c2nnn3c2[nH]c(=O)c2ccc(N4CCN(CC(=O)NCCO)CC4)cc23)c(C)c1 [Compound 19] | 18.5 to 92.7 | < 1.85 | 
Cc1ccc(S(=O)(=O)c2nnn3c2[nH]c(=O)c2ccc(N4CCN(CC(=O)NCCCCO)CC4)cc23)c(C)c1 [Compound 20] | 17.6 to 88.1 | < 1.76 | 

Compound | IC50 [3] [µM] | IC50 [4] [µM] | other results
Cc1ccc(S(=O)(=O)c2nnn3c2[nH]c(=O)c2ccc(N4CCN(CC(=O)NCCOCCO)CC4)cc23)c(C)c1 [Compound 21] | 17.1 to 85.7 | < 1.71 | 
Cc1ccc(S(=O)(=O)c2nnn3c2[nH]c(=O)c2ccc(N4CCN(CC(=O)NCCOCCOCCO)CC4)cc23)c(C)c1 [Compound 22] | 15.9 to 79.7 | 1.59 to 7.97 | 
C#CCNC(=O)CN1CCN(c2ccc3c(=O)[nH]c4c(S(=O)(=O)c5ccc(C)cc5C)nnn4c3c2)CC1 [Compound 23] | < 18.7 | 1.87 to 9.37 | 
CCCNC(=O)CN1CCCN(c2ccc3c(=O)[nH]c4c(S(=O)(=O)c5ccc(C)cc5C)nnn4c3c2)CC1 [Compound 30] | 18.1 to 90.6 | < 1.81 | 
COCCNC(=O)CN1CCCN(c2ccc3c(=O)[nH]c4c(S(=O)(=O)c5ccc(C)cc5C)nnn4c3c2)CC1 [Compound 31] |  |  | Ratio IC50 (in presence of HSA)/IC50 (in absence of HSA): +++ (+++: ratio ≤ 25); IC50 at 40 mg/mL HSA [1]: +++ (+++: IC50 ≤ 10 μg/mL); IC50 without HSA [2]: +++ (+++: IC50 ≤ 1 μg/mL)
Cc1ccc(S(=O)(=O)c2nnn3c2[nH]c(=O)c2ccc(N4CCCN(CC(=O)NCCO)CC4)cc23)c(C)c1 [Compound 32] | 18.1 to 90.3 | 1.81 to 9.03 | 
Cc1ccc(S(=O)(=O)c2nnn3c2[nH]c(=O)c2ccc(N4CCN(CC(=O)NC5CC5)CC4)cc23)c(C)c1 [Compound 33] | 18.7 to 93.3 | < 1.87 | 
Cc1ccc(S(=O)(=O)c2nnn3c2[nH]c(=O)c2ccc(N4CCN(CC(=O)NC5CCC5)CC4)cc23)c(C)c1 [Compound 34] | 18.2 to 91 | < 1.82 | 
Cc1ccc(S(=O)(=O)c2nnn3c2[nH]c(=O)c2ccc(N4CCN(CC(=O)NC5CCCC5)CC4)cc23)c(C)c1 [Compound 35] | < 17.7 | < 1.77 | 
Cc1ccc(S(=O)(=O)c2nnn3c2[nH]c(=O)c2ccc(N4CCN(CC(=O)NCC5CC5)CC4)cc23)c(C)c1 [Compound 36] | 18.2 to 91 | < 1.82 | 
Cc1ccc(S(=O)(=O)c2nnn3c2[nH]c(=O)c2ccc(N4CCN(CC(=O)NCC5CCCC5)CC4)cc23)c(C)c1 [Compound 37] | < 17.3 | < 1.73 | 
Cc1ccc(S(=O)(=O)c2nnn3c2[nH]c(=O)c2ccc(N4CCN(CC(=O)NC5CCCCC5)CC4)cc23)c(C)c1 [Compound 38] | 17.3 to 86.5 | < 1.73 | 
Cc1ccc(S(=O)(=O)c2nnn3c2[nH]c(=O)c2ccc(N4CCN(CC(=O)N(C)C5CCCCC5)CC4)cc23)c(C)c1 [Compound 39] | 16.9 to 84.5 | < 1.69 | 
Cc1ccc(S(=O)(=O)c2nnn3c2[nH]c(=O)c2ccc(N4CCN(CC(=O)NCC5CCCCC5)CC4)cc23)c(C)c1 [Compound 40] | < 16.9 | < 1.69 | 
Cc1ccc(S(=O)(=O)c2nnn3c2[nH]c(=O)c2ccc(N4CCN(CC(=O)NC5CCC(N(C)C)CC5)CC4)cc23)c(C)c1 (centres unmarked) [Compound 42] | 16.1 to 80.5 | < 1.61 | 
Cc1ccc(S(=O)(=O)c2nnn3c2[nH]c(=O)c2ccc(N4CCN(CC(=O)NC5CCC(O)CC5)CC4)cc23)c(C)c1 (centres unmarked) [Compound 43] | < 16.8 | < 1.68 | 
Cc1ccc(S(=O)(=O)c2nnn3c2[nH]c(=O)c2ccc(N4CCN(CC(=O)NCCCC5CCCCC5)CC4)cc23)c(C)c1 [Compound 44] | 16.1 to 80.7 | 1.61 to 8.07 | 
Cc1ccc(S(=O)(=O)c2nnn3c2[nH]c(=O)c2ccc(N4CCC4)cc23)c(C)c1 [Compound 45 of WO 2020/109350, reference compound] | > 122 | < 2.44 | Ratio IC50 (in presence of HSA)/IC50 (in absence of HSA): + (+: ratio > 125); IC50 (IC50 in the presence of 40 mg/mL HSA, 40 mg/mL HSA, highest concentration tested 128 μg/mL): > 313 µM; IC50 (concentration inhibiting the expression of lacZ in the absence of HSA, absence of HSA): < 2.44 µM
Cc1ccc(S(=O)(=O)c2nnn3c2[nH]c(=O)c2ccc(N4CCCN(CC(=O)NC5CCC5)CC4)cc23)c(C)c1 [Compound 51] | 17.7 to 88.7 | < 1.77 | 
Cc1ccc(S(=O)(=O)c2nnn3c2[nH]c(=O)c2ccc(N4CCCN(CC(=O)NC5CCCC5)CC4)cc23)c(C)c1 [Compound 52] | 17.3 to 86.5 | 1.73 to 8.65 | 
